From PubChem BioAssay (NCI)
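Cultured in 96-well plates, cells were exposed to test compound for 48 hours across five concentrations. GI50 marks 50% less growth. TGI is the concentration that stops growth completely.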

Tests used:
Experiment in all cases: growth of human tumour cells (NCI), 48 h
SF-539 CNS = test system: SF-539 CNS
RXF 393 renal = test system: RXF 393 renal
NCI-H460 lung = test system: NCI-H460 lung
OVCAR-5 ovarian = test system: OVCAR-5 ovarian
M14 melanoma = test system: M14 melanoma
HT29 colon = test system: HT29 colon
SF-295 CNS = test system: SF-295 CNS
HS 578T breast = test system: HS 578T breast
SNB-19 CNS = test system: SNB-19 CNS
NCI-H226 lung = test system: NCI-H226 lung

| SMILES | GI50 (SF-539 CNS) [µM] | TGI (SF-539 CNS) [µM] | GI50 (RXF 393 renal) [µM] | TGI (RXF 393 renal) [µM] | GI50 (NCI-H460 lung) [µM] | TGI (NCI-H460 lung) [µM] | GI50 (OVCAR-5 ovarian) [µM] | TGI (OVCAR-5 ovarian) [µM] | GI50 (M14 melanoma) [µM] | TGI (M14 melanoma) [µM] | GI50 (HT29 colon) [µM] | TGI (HT29 colon) [µM] | GI50 (SF-295 CNS) [µM] | TGI (SF-295 CNS) [µM] | GI50 (HS 578T breast) [µM] | TGI (HS 578T breast) [µM] | GI50 (SNB-19 CNS) [µM] | TGI (SNB-19 CNS) [µM] | GI50 (NCI-H226 lung) [µM] | TGI (NCI-H226 lung) [µM] |
| --- | --- | --- | --- | --- | --- | --- | --- | --- | --- | --- | --- | --- | --- | --- | --- | --- | --- | --- | --- | --- |
| COc1cccc2c1-c1c(c3ccc([N+](=O)[O-])cc3c(=O)n1CCCN)C2=O | 1.52 | 3.19 | 24.1 | > 78.8 | 0.239 | 1.94 | 1.88 | 3.4 | 1.54 | 3 | 1.24 | 3.08 | 3.1 | 14.8 | 7.62 | 18.7 | 1.35 | 2.93 | 7.67 | 34.3 |
| N[C@@H]1C(=O)N2C(C(=O)OC(c3ccccc3)c3ccccc3)=C(CCl)CS[C@H]12 | 23.5 | 50.2 | 26.4 | 63.7 | 34 | > 100 | 44.5 | > 100 | 34.8 | > 96.2 | 30.2 | > 94 | > 94.3 | > 100 | 46.8 | > 100 | 66.7 | > 100 | 55.2 | > 100 |
| ON(Cc1ccccc1)C(=S)c1ccccc1 | – | 44.4 | – | 85.3 | – | 22.3 | – | > 100 | – | 55.6 | – | > 100 | – | > 45.3 | – | > 100 | – | > 100 | – | 93 |
| Cc1cc2cc3ccc(N(C)C)cc3nc2cc1N | 0.658 | 2.49 | 0.41 | 1.34 | 0.234 | 0.68 | 1.26 | 6.55 | 0.682 | 2.14 | 0.327 | 1.76 | 0.273 | 2.03 | 0.51 | 3.48 | 0.582 | 4.42 | 0.584 | 3.6 |
| Oc1ccc(-c2nc3ccc4[nH]ncc4c3c3c2CCCC3)c(F)c1 | 2.41 | 10.2 | 1.47 | 5.63 | 2.18 | 11.1 | 4.41 | 17.6 | 1.07 | 12 | 2.7 | 11.2 | 3.81 | 14.3 | 2.35 | 8.98 | 3.59 | 14.2 | 5.26 | 69.9 |
| CC1=CC(=O)C(C(C)C)=CC1=Nc1cc(Br)c(O)c(Br)c1 | 2.29 | 5.96 | 3.9 | 15.3 | 3.53 | 14.4 | 11.8 | 30.3 | 2.52 | 7.52 | 4.05 | 16 | 1.4 | 5.53 | 2.76 | 21.1 | 9.95 | 26.1 | 3.87 | 19.3 |
| Cc1cc(Nc2nc(-c3cccnc3)nc3ccccc23)n[nH]1 | 1.82 | 7.99 | 0.388 | 2.52 | 1.84 | > 100 | 7.77 | > 100 | 2.33 | > 100 | 1.57 | 11.8 | 2.72 | > 100 | 0.364 | 3.74 | 5.98 | > 100 | 1.39 | > 24.2 |
| Cc1ccc(C(NC(=O)c2ccccc2)c2ccc3cccnc3c2O)cc1 (stereo not given) | 0.318 | 1.91 | 0.252 | 1.58 | 0.26 | 3.08 | 0.611 | > 70.4 | 0.244 | 2.38 | 0.536 | 19.4 | 0.351 | 14.7 | 1.25 | > 74.7 | 0.492 | > 100 | 0.302 | 3.69 |
| COc1ccc2c(c1)CC[C@@H]1[C@@H]2CC[C@]2(C)[C@@H](NC(=O)/C=C/c3ccc(O)c(O)c3)CC[C@@H]12 | 4.1 | 15.6 | 7.94 | 46 | 2.7 | 9.93 | 6.37 | 20.7 | 2.26 | 6.98 | 4.74 | > 100 | 12.8 | 27.1 | 18.5 | 58.4 | 15.7 | 48.6 | 2.34 | 6.45 |
| COC(=O)C1OC2(CCCC3CC32)O[C@H]1C(=O)OC (stereo not given in full) | – | > 100 | – | > 100 | – | > 100 | – | > 100 | – | > 100 | – | > 100 | – | > 100 | – | > 100 | – | > 100 | – | > 100 |
| NC1=NC(c2ccc(Cl)cc2)N(c2ccc(S(N)(=O)=O)cc2)C(N)=N1 (stereo not given) | – | > 100 | – | > 100 | – | > 100 | – | > 100 | – | > 100 | – | > 100 | – | > 100 | – | > 100 | – | > 100 | – | > 100 |
| CN(COC(=O)c1ccccc1)c1nc(N(C)COC(=O)c2ccccc2)nc(N(C)COC(=O)c2ccccc2)n1 | – | 38.9 | – | 26.2 | – | > 100 | – | > 100 | – | > 100 | – | > 100 | – | > 84.9 | – | > 100 | – | 51.7 | – | > 100 |
| S=c1[nH]nc(Cc2ccccc2)c(=S)[nH]1 | – | > 100 | – | > 100 | – | > 93.7 | – | > 100 | – | > 100 | – | > 100 | – | > 100 | – | > 100 | – | > 100 | – | > 100 |
| Cc1ccc(-c2c3c(nn2-c2ccc(S(N)(=O)=O)cc2)-c2ccccc2C3)cc1 | 18.3 | 33.3 | 17 | 43.7 | 19.1 | 43.7 | 26.1 | 63.7 | 19.2 | 37.6 | 24.2 | 95.8 | 20.7 | 47.3 | 13.5 | 36.2 | 37.4 | > 100 | 16.5 | 44 |
| COc1ccc(C(c2ccc(OCCN(C)C)cc2)c2cc3ccccc3c3ccccc23)cc1 (stereo not given) | 1.7 | 3.13 | 1.44 | 2.82 | 1.79 | 3.29 | 1.56 | 3.27 | 1.73 | 3.25 | 1.6 | 3.1 | 1.77 | 3.33 | 1.66 | 3.62 | 1.72 | 3.31 | 3.43 | 15.4 |
